Reference: patent US20250129044A1 (priority 2021, published 2025)
Counter-ions that a name gives are not always drawn.

Molecular target: sodium channel isoforms (Homo sapiens, UniProt P35498)
Format: cell-based
Conditions: area under the sodium current trace, step from −120 mV to 0 mV, HEK cells
Protocol: The sodium channel isoforms of interest are stably expressed in Human Embryonic Kidney Cells and the currents that flow through those channels in response to a depolarizing voltage clamp step from −120 mV to 0 mV are measured in the presence of increasing concentrations of the chemical agents. The area under the sodium current trace which correlates to the magnitude of sodium flux through the cell membrane is used to quantify the effects on gating of the channels. Other parameters that are measured in the assay include the peak current, time constant of open state inactivation and the voltage dependence of steady state inactivation properties. The concentration responses are used to determine potency of each chemical agents effects on modulating the sodium channel isoform gating. Such techniques are known to those skilled in the art, and may be developed, using current technologies, into low or medium throughput assays for evaluating compounds for their ability to modulate sodium channel behaviour.

Row | SMILES | Empirical Emax | EC50 [nM]
1 | CC(C)c1ncc(C(=O)Nc2c(-c3ccccc3F)ccnc2[C@H]2CC[C@](O)(C(F)(F)F)CC2)cn1 [Example 21, N-[4-(2-fluorophenyl)-2-[4-hydroxy-4-(trifluoromethyl)cyclohexyl]-3-pyridyl]-2-isopropyl-pyrimidine-5-carboxamide] | + (+ indicates a value less than 2.0 μM) | 
2 | O=C(Nc1ccc(Cl)nc1)c1c(-c2ccccc2F)ccnc1C1=CCCC1 [Example 50, N-(6-chloropyridin-3-yl)-2-(cyclopent-1-en-1-yl)-4-(2-fluorophenyl)nicotinamide] | + (+ indicates a value less than 2.0 μM) | 
3 | CCOc1ncc(C(=O)Nc2c(-c3ccccc3F)ccnc2C2CCC(F)(F)CC2)cn1 [Example 3, N-[2-(4,4-difluorocyclohexyl)-4-(2-fluorophenyl)-3-pyridyl]-2-ethoxy-pyrimidine-5-carboxamide] | ++++ (++++ indicates a value greater than 7.5) | 
4 | CC(C)c1ncc(C(=O)Nc2c(-c3ccccc3)ccnc2C2CCOCC2)cn1 [Example 10, 2-isopropyl-N-(4-phenyl-2-(tetrahydro-2H-pyran-4-yl)pyridin-3-yl)pyrimidine-5-carboxamide] | ++ (++ indicates a value from 2.0 up to 5.0 μM) | 
5 | CO[C@H]1CC[C@H](c2nccc(-c3ccccc3F)c2NC(=O)c2cnc(C(C)C)nc2)CC1 [Example 39] | + (+ indicates a value less than 2.0 μM) | 
6 | CN(C)c1ncc(C(=O)Nc2c(-c3ccccc3F)ccnc2C2CCC(F)(F)CC2)cn1 [Example 2, N-[2-(4,4-difluorocyclohexyl)-4-(2-fluorophenyl)-3-pyridyl]-2-(dimethylamino)pyrimidine-5-carboxamide] | ++++ (++++ indicates a value greater than 7.5) | 
7 | CC(C)c1ncc(C(=O)Nc2c(-c3ccccc3F)ccnc2[C@H]2CC[C@H](C(F)(F)F)CC2)cn1 [Example 30, N-[4-(2-fluorophenyl)-2-[4-(trifluoromethyl)cyclohexyl]-3-pyridyl]-2-isopropyl-pyrimidine-5-carboxamide] | ++ (++ indicates a value from 2.0 up to 5.0 μM) | 
8 | CO[C@H]1CC[C@@H](c2nccc(-c3ccccc3F)c2NC(=O)c2cnc(C(C)C)nc2)CC1 [Example 38] | + (+ indicates a value less than 2.0 μM) | 
9 | COC1CCN(C(=O)Nc2c(-c3ccccc3F)ccnc2C2CCC(F)(F)CC2)CC1 [Example 5, N-[2-(4,4-difluorocyclohexyl)-4-(2-fluorophenyl)-3-pyridyl]-4-methoxy-piperidine-1-carboxamide] | +++ (+++ indicates a value from 5.0 up to 7.5 μM) | 
10 | CC(C)c1ncc(C(=O)Nc2c(-c3ccccc3F)ccnc2C2C[C@@H]3[C@H](C2)C3(F)F)cn1 (stereo partly drawn) [Example 23, N-[2-[(1R,5S)-6,6-difluoro-3-bicyclo[3.1.0]hexanyl]-4-(2-fluorophenyl)-3-pyridyl]-2-isopropyl-pyrimidine-5-carboxamide] | ++++ (++++ indicates a value greater than 7.5) | 
11 | CC(C)c1ncc(C(=O)Nc2c(-c3ccccc3F)ccnc2C2CC(F)(F)CCN2C)cn1 (racemic) [Example 43] | ++ (++ indicates a value from 2.0 up to 5.0 μM) | 
12 | O=C(Nc1ccc(Cl)nc1)c1c(-c2ccccc2F)ccnc1C1=CCOCC1 [Example 51] | + (+ indicates a value less than 2.0 μM) | 
13 | CC(C)c1ncc(C(=O)Nc2c(-c3ccccc3F)ccnc2C2CCOCC2)cn1 [Example 14, N-(4-(2-fluorophenyl)-2-(tetrahydro-2H-pyran-4-yl)pyridin-3-yl)-2-isopropylpyrimidine-5-carboxamide] | +++ (+++ indicates a value from 5.0 up to 7.5 μM) | 
14 | CC(C)c1ncc(C(=O)Nc2c(-c3ccccc3F)ccnc2C2CC(C(F)(F)F)C2)cn1 (stereo not shown) [Example 35, N-(4-(2-fluorophenyl)-2-(3-(trifluoromethyl)cyclobutyl)pyridin-3-yl)-2-isopropylpyrimidine-5-carboxamide] | +++ (+++ indicates a value from 5.0 up to 7.5 μM) | 
15 | CC(C)c1ncc(C(=O)Nc2c(-c3cc(F)ccc3F)ccnc2C2CCC(F)(F)CC2)cn1 [Example 6, N-[2-(4,4-difluorocyclohexyl)-4-(2,5-difluorophenyl)-3-pyridyl]-2-isopropyl-pyrimidine-5-carboxamide] | +++ (+++ indicates a value from 5.0 up to 7.5 μM) | 
16 | CC(C)c1ncc(C(=O)Nc2c(-c3ccccc3F)ccnc2C2CCCCC2)cn1 [Example 17, N-[2-cyclohexyl-4-(2-fluorophenyl)-3-pyridyl]-2-isopropyl-pyrimidine-5-carboxamide] | +++ (+++ indicates a value from 5.0 up to 7.5 μM) | 

Row | SMILES | Empirical Emax | EC50 [nM]
17 | CC(C)c1ncc(C(=O)Nc2c(-c3ccccc3F)ccnc2C2CCCN2C)cn1 (racemic) [Example 42, (±)—N-(4-(2-fluorophenyl)-2-(1-methylpyrrolidin-2-yl)pyridin-3-yl)-2-isopropylpyrimidine-5-carboxamide] | + (+ indicates a value less than 2.0 μM) | 
18 | O=C(Nc1c(-c2ccccc2F)ccnc1C1CCC(F)(F)CC1)c1cnn(C2CCC2)c1 [Example 1, 1-cyclobutyl-N-[2-(4,4-difluorocyclohexyl)-4-(2-fluorophenyl)-3-pyridyl]pyrazole-4-carboxamide] | ++++ (++++ indicates a value greater than 7.5) | 
19 | FC1(F)CCC(c2nccc(-c3ccccc3)c2-c2nc3c([nH]2)COCC3)CC1 [Example 46, 2-(2-(4,4-difluorocyclohexyl)-4-phenylpyridin-3-yl)-3,4,6,7-tetrahydropyrano[3,4-d]imidazole] | +++ (+++ indicates a value from 5.0 up to 7.5 μM) | 
20 | CN1C[C@H]2CC[C@@H](C1)N2c1ncc(C(=O)Nc2c(-c3cc(F)ccc3F)ccnc2C2CCC(F)(F)CC2)cn1 [Example 160, N-(2-(4,4-difluorocyclohexyl)-4-(2,5-difluorophenyl)pyridin-3-yl)-2-((1R,5S)-3-methyl-3,8-diazabicyclo[3.2.1]octan-8-yl)pyrimidine-5-carboxamide] |  | < 1000
21 | Fc1ccc(F)c(-c2ccnc(C3CCC(F)(F)C3)c2-c2nc3c([nH]2)COCC3)c1 (stereo not shown) [Example 48, 2-(2-(3,3-difluorocyclopentyl)-4-(2,5-difluorophenyl)pyridin-3-yl)-3,4,6,7-tetrahydropyrano[3,4-d]imidazole] | +++ (+++ indicates a value from 5.0 up to 7.5 μM) | 
22 | CC(C)c1ncc(C(=O)Nc2c(-c3ccccc3F)ccnc2C2CCC(F)(F)C2)cn1 (stereo not shown) [Example 24, N-[2-(3,3-difluorocyclopentyl)-4-(2-fluorophenyl)-3-pyridyl]-2-isopropyl-pyrimidine-5-carboxamide] | ++++ (++++ indicates a value greater than 7.5) | 
23 | CC(C)c1ccc(NC(=O)c2c(-c3ccccc3F)ccnc2C2CCOCC2)cn1 [Example 53, 4-(2-fluorophenyl)-N-(6-isopropylpyridin-3-yl)-2-(tetrahydro-2H-pyran-4-yl)nicotinamide] | ++ (++ indicates a value from 2.0 up to 5.0 μM) | 
24 | CC(C)c1ncc(C(=O)Nc2c(-c3ccccc3F)ccnc2C2CC(F)(F)CCN2C(=O)OC(C)(C)C)cn1 (stereo not shown) [Example 20, tert-butyl 4,4-difluoro-2-[4-(2-fluorophenyl)-3-[(2-isopropylpyrimidine-5-carbonyl)amino]-2-pyridyl]piperidine-1-carboxylate] | + (+ indicates a value less than 2.0 μM) | 
25 | COc1ccc(C(=O)Nc2c(-c3cc(F)ccc3F)ccnc2C2CCC(F)(F)CC2)cn1 [Example 8, N-[2-(4,4-difluorocyclohexyl)-4-(2,5-difluorophenyl)-3-pyridyl]-6-methoxy-pyridine-3-carboxamide] | +++ (+++ indicates a value from 5.0 up to 7.5 μM) | 
26 | CC(C)c1ncc(C(=O)Nc2c(-c3ccccc3F)ccnc2C2CC(F)(F)CCN2)cn1 (racemic) [Example 41, (±)—N-[2-(4,4-difluoro-2-piperidyl)-4-(2-fluorophenyl)-3-pyridyl]-2-isopropyl-pyrimidine-5-carboxamide hydrochloric acid salt] | ++ (++ indicates a value from 2.0 up to 5.0 μM) | 
27 | O=C(Nc1c(-c2cc(F)ccc2F)ccnc1C1CCC(F)(F)CC1)c1cnc(N2CC3CC(C2)O3)nc1 [Example 167, 2-(6-oxa-3-azabicyclo[3.1.1]heptan-3-yl)-N-(2-(4,4-difluorocyclohexyl)-4-(2,5-difluorophenyl)pyridin-3-yl)pyrimidine-5-carboxamide] |  | < 1000
28 | O=C(Nc1c(-c2cc(F)ccc2F)ccnc1C1CCC(F)(F)CC1)c1cnc(N2CC3CC(C3)C2)nc1 [Example 166, 2-(3-azabicyclo[3.1.1]heptan-3-yl)-N-(2-(4,4-difluorocyclohexyl)-4-(2,5-difluorophenyl)pyridin-3-yl)pyrimidine-5-carboxamide] |  | < 1000
29 | CC(C)c1ncc(C(=O)Nc2c(-c3ccccc3)ccnc2C2CCCO2)cn1 (racemic) [Example 11, (±)-2-isopropyl-N-(4-phenyl-2-(tetrahydrofuran-2-yl)pyridin-3-yl)pyrimidine-5-carboxamide] | + (+ indicates a value less than 2.0 μM) | 
30 | O=C(Nc1c(-c2cc(F)ccc2F)ccnc1C1CCC(F)(F)CC1)c1cnc(N2C3CCCC2CC3)nc1 [Example 165, 2-(8-azabicyclo[3.2.1]octan-8-yl)-N-(2-(4,4-difluorocyclohexyl)-4-(2,5-difluorophenyl)pyridin-3-yl)pyrimidine-5-carboxamide] |  | < 1000
31 | C1=C(c2nccc(-c3ccccc3)c2-c2nc3c([nH]2)COCC3)CCOC1 [Example 44, 2-(2-(3,6-dihydro-2H-pyran-4-yl)-4-phenylpyridin-3-yl)-3,4,6,7-tetrahydropyrano[3,4-d]imidazole] | + (+ indicates a value less than 2.0 μM) | 
